ChEMBL document CHEMBL6071146, “Synthesis and identification of a selective FGFR2 degrader with potent antiproliferative effects in gastric cancer” (Eur J Med Chem, 2024)

Key:
SNU-16 [1] = experiment: Antiproliferative activity against human SNU-16 cells incubated for 72 hrs by MTT assay; conditions: SNU-16, 72 h
[2] = Antiproliferative activity against human KATO III cells incubated for 72 hrs by MTT assay
cells [3] = conditions: Homo sapiens, KATO III, 24 h, read-out: Activity
Description: Induction of apoptosis in human KATO III cells assessed as viable cells at 1000 nM incubated for 24 hrs by Annexin V-FITC/PI staining based flow cytometry (Rvb = 87.00 %)

cells [4] = conditions: Homo sapiens, KATO III, 24 h, read-out: Activity; remark: listed apart in the source
Description: Induction of apoptosis in human KATO III cells assessed as viable cells at 500 nM incubated for 24 hrs by Annexin V-FITC/PI staining based flow cytometry (Rvb = 87.00 %)

SNU-16 [5] = experiment: Antitumor activity against human SNU-16 cells xenografted in BALB/c mouse at 20 mg/kg, ip qd for 25 days relative to control; conditions: SNU-16, 600 h, read-out: TGI
SNU-16 [6] = experiment: cells; conditions: Homo sapiens, SNU-16, 24 h, read-out: Activity
Description: Induction of apoptosis in human SNU-16 cells assessed as viable cells at 1000 nM incubated for 24 hrs by Annexin V-FITC/PI staining based flow cytometry (Rvb = 77.12 %)

SNU-16 [7] = experiment: cells; conditions: Homo sapiens, SNU-16, 24 h, read-out: Activity; remark: listed apart in the source
Description: Induction of apoptosis in human SNU-16 cells assessed as viable cells at 500 nM incubated for 24 hrs by Annexin V-FITC/PI staining based flow cytometry (Rvb = 77.12 %)

SMILES	IC50 (SNU-16 [1])	IC50 [2]	viability at 1 µM (cells [3])	viability at 0.5 µM (cells [4])	inhibition in vivo at 20 mg/kg (SNU-16 [5])	viability at 1 µM (SNU-16 [6])	viability at 0.5 µM (SNU-16 [7])
COc1cc(OC)cc(N(CCNC(C)C)c2ccc3ncc(-c4cnn(CCCCCCC(=O)NCC(=O)NCCNc5cccc6c5C(=O)N(C5CCC(=O)NC5=O)C6=O)c4)nc3c2)c1 (stereo not drawn)	1 nM	1 nM					
COc1cc(OC)cc(N(CCNC(C)C)c2ccc3ncc(-c4cnn(CC(=O)NCC(=O)NCCNc5cccc6c5C(=O)N(C5CCC(=O)NC5=O)C6=O)c4)nc3c2)c1 (stereo not drawn)	65 nM	523 nM					
COc1cc(OC)cc(N(CCNC(C)C)c2ccc3ncc(-c4cnn(CCCC(=O)NCCNc5cccc6c5C(=O)N(C5CCC(=O)NC5=O)C6=O)c4)nc3c2)c1 (stereo not drawn)	234 nM	172 nM					
COc1cc(OC)cc(N(CCNC(C)C)c2ccc3ncc(-c4cnn(CCCCCC(=O)NCC(=O)NCCNc5cccc6c5C(=O)N(C5CCC(=O)NC5=O)C6=O)c4)nc3c2)c1 (stereo not drawn)	1 nM	595 nM					
COc1cc(OC)cc(N(CCNC(C)C)c2ccc3ncc(-c4cnn(CCCCCCCC(=O)NCCNc5cccc6c5C(=O)N(C5CCC(=O)NC5=O)C6=O)c4)nc3c2)c1 (stereo not drawn)	< 0.17 nM	< 0.17 nM					
COc1cc(OC)cc(N(CCNC(C)C)c2ccc3ncc(-c4cnn(C)c4)nc3c2)c1 [ERDAFITINIB]	1 nM	4 nM	69.1%	70.7%	104%	47.8%	49.9%
COc1cc(OC)cc(N(CCNC(C)C)c2ccc3ncc(-c4cnn(CCC(=O)NCC(=O)NCCNc5cccc6c5C(=O)N(C5CCC(=O)NC5=O)C6=O)c4)nc3c2)c1 (stereo not drawn)	150 nM	457 nM					
COc1cc(OC)cc(N(CCNC(C)C)c2ccc3ncc(-c4cnn(CCOCCOCCOCCOCC(=O)NCCNc5cccc6c5C(=O)N(C5CCC(=O)NC5=O)C6=O)c4)nc3c2)c1 (stereo not drawn)	10 nM	158 nM					
COc1cc(OC)cc(N(CCNC(C)C)c2ccc3ncc(-c4cnn(CC(=O)NCCNc5cccc6c5C(=O)N(C5CCC(=O)NC5=O)C6=O)c4)nc3c2)c1 (stereo not drawn)	48 nM	463 nM					
